Measured values from PMC10337138 (Acta Neuropathologica Communications, 2023).

Key:
Details in all cases: 1 mM ATP; inhibitor
SRMS = SRMS (Homo sapiens, UniProt Q9H3Y6)
Experimental: (§1) Kinase selectivity panel Kinome profiling was conducted by AssayQuant Technologies (Marlboro, MA) using Sox chromophore technology and Sox-based peptide substrates developed for human kinases in a 384-well format. Compounds were tested at 1 µM in the presence of 1 mM ATP.

ERBB4/HER4 = ERBB4/HER4 (Homo sapiens, UniProt Q15303)
Experimental: as §1

TESK2 = TESK2 (Homo sapiens, UniProt Q96S53)
Experimental: as §1

CSNK1AL/CK1A2 = molecular target: T1, CSNK1AL/CK1A2 (Homo sapiens, UniProt Q8N752)
T1 construct: gene CSNK1A1L
Experimental: as §1

GRK1 = GRK1 (Homo sapiens, UniProt Q15835)
Experimental: as §1

MLK4 = molecular target: T2, MLK4 (Homo sapiens, UniProt Q5TCX8)
T2 construct: gene MAP3K21
Experimental: as §1

FGFR1 = FGFR1 (Homo sapiens, UniProt P11362)
Experimental: as §1

FER = FER (Homo sapiens, UniProt P16591)
Experimental: as §1

CSNK1E/CK1E = CSNK1E/CK1E (Homo sapiens, UniProt P49674)
Experimental: as §1

MAPK1/ERK2 = MAPK1/ERK2 (Homo sapiens, UniProt P28482)
Experimental: as §1

ICK = molecular target: T3, ICK (Homo sapiens, UniProt Q9UPZ9)
T3 construct: gene CILK1
Experimental: as §1

MARK4 = MARK4 (Homo sapiens, UniProt Q96L34)
Experimental: as §1

TSSK1 = molecular target: T4, TSSK1 (Homo sapiens, UniProt Q9BXA7)
T4 construct: gene TSSK1B
Experimental: as §1

MAP3K1 = MAP3K1 (Homo sapiens, UniProt Q13233)
Experimental: as §1

EPHA3 = EPHA3 (Homo sapiens, UniProt P29320)
Experimental: as §1

PNCK/CAMK1B = PNCK/CAMK1B (Homo sapiens, UniProt Q6P2M8)
Experimental: as §1

SRPK3/MSSK1 = SRPK3/MSSK1 (Homo sapiens, UniProt Q9UPE1)
Experimental: as §1

CDK2/A2 = CDK2/A2 (Homo sapiens, UniProt P24941)
Experimental: as §1

DAPK2 = DAPK2 (Homo sapiens, UniProt Q9UIK4)
Experimental: as §1

PRKD2 = PRKD2 (Homo sapiens, UniProt Q9BZL6)
Experimental: as §1

PRKAA2/AMPK211 = PRKAA2/AMPK211 (Homo sapiens, UniProt P54646)
Experimental: as §1

FLT4 = FLT4 (Homo sapiens, UniProt P35916)
Experimental: as §1

MST1R/RON = MST1R/RON (Homo sapiens, UniProt Q04912)
Experimental: as §1

PLK2 = PLK2 (Homo sapiens, UniProt Q9NYY3)
Experimental: as §1

MAPK11/P38B = MAPK11/P38B (Homo sapiens, UniProt Q15759)
Experimental: as §1

STK26/MST4 = STK26/MST4 (Homo sapiens, UniProt Q9P289)
Experimental: as §1

BUB1 = BUB1 (Homo sapiens, UniProt O43683)
Experimental: as §1

CDK3/E1 = CDK3/E1 (Homo sapiens, UniProt Q00526)
Experimental: as §1

ERBB2/HER2 = ERBB2/HER2 (Homo sapiens, UniProt P04626)
Experimental: as §1

NEK7 = NEK7 (Homo sapiens, UniProt Q8TDX7)
Experimental: as §1

MYO3A = MYO3A (Homo sapiens, UniProt Q8NEV4)
Experimental: as §1

GSK3B = GSK3B (Homo sapiens, UniProt P49841)
Experimental: as §1

DCLK1/DCAML1 = DCLK1/DCAML1 (Homo sapiens, UniProt O15075)
Experimental: as §1

GAK = GAK (Homo sapiens, UniProt O14976)
Experimental: as §1

PTK2B = PTK2B (Homo sapiens, UniProt Q14289)
Experimental: as §1

PAK3 = PAK3 (Homo sapiens, UniProt O75914)
Experimental: as §1

NUAK2 = NUAK2 (Homo sapiens, UniProt Q9H093)
Experimental: as §1

PRKAA1/AMPK121 = PRKAA1/AMPK121 (Homo sapiens, UniProt Q13131)
Experimental: as §1

Sequence of DCLK1/DCAML1 (O15075 whole entry): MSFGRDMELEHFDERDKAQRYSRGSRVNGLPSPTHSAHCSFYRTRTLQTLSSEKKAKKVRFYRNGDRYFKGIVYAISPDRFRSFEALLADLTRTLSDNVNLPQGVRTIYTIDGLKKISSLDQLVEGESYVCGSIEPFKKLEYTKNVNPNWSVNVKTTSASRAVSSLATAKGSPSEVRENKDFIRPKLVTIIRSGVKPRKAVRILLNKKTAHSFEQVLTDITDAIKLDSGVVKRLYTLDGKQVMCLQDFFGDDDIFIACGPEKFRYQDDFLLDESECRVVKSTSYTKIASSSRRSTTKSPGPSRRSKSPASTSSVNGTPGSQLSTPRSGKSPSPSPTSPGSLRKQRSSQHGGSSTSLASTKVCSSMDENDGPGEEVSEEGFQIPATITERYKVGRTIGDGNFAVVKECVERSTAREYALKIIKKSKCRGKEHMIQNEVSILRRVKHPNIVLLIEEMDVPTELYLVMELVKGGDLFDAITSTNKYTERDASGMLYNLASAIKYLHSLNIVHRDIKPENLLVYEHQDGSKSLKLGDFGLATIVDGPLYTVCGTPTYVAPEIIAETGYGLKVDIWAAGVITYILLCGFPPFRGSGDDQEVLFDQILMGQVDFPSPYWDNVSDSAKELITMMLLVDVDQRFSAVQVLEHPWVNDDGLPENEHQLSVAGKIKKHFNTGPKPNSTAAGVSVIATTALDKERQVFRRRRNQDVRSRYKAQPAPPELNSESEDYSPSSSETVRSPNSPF
Sequence of EPHA3 (P29320 whole entry): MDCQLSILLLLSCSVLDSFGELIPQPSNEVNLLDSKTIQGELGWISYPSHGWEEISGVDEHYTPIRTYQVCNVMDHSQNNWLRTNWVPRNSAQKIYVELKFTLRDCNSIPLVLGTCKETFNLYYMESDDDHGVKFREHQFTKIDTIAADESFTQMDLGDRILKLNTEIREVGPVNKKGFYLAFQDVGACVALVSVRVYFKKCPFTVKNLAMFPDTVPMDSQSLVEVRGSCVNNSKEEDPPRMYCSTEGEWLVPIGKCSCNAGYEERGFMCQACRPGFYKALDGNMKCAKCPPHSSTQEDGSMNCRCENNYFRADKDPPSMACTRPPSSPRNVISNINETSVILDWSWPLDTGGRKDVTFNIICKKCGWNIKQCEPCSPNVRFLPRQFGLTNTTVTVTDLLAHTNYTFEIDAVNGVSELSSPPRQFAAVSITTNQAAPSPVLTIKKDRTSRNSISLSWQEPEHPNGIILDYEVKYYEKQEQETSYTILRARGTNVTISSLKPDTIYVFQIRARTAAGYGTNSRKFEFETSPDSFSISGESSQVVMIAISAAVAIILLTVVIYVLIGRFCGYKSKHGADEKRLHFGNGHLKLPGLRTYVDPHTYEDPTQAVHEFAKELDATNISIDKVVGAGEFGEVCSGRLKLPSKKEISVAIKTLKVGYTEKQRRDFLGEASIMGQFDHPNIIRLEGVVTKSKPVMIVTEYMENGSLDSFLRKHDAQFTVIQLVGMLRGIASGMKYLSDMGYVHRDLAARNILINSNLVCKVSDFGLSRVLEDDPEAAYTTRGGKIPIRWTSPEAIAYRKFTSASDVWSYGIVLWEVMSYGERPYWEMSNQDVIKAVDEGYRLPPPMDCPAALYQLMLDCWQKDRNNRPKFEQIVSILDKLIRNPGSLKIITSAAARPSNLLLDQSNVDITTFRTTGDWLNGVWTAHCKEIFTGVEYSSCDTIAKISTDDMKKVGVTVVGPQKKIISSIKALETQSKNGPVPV
Sequence of MAPK11/P38B (Q15759 whole entry): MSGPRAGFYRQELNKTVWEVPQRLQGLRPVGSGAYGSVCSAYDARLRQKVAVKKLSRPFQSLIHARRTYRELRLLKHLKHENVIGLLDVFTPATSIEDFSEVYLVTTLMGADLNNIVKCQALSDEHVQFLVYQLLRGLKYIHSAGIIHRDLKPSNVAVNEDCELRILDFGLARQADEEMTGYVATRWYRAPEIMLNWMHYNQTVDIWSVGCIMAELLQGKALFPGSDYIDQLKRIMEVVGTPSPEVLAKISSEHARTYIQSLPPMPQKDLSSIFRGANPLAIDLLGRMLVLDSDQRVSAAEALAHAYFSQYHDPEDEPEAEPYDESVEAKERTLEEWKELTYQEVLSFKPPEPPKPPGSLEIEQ
Sequence of ERBB4/HER4 (Q15303 whole entry): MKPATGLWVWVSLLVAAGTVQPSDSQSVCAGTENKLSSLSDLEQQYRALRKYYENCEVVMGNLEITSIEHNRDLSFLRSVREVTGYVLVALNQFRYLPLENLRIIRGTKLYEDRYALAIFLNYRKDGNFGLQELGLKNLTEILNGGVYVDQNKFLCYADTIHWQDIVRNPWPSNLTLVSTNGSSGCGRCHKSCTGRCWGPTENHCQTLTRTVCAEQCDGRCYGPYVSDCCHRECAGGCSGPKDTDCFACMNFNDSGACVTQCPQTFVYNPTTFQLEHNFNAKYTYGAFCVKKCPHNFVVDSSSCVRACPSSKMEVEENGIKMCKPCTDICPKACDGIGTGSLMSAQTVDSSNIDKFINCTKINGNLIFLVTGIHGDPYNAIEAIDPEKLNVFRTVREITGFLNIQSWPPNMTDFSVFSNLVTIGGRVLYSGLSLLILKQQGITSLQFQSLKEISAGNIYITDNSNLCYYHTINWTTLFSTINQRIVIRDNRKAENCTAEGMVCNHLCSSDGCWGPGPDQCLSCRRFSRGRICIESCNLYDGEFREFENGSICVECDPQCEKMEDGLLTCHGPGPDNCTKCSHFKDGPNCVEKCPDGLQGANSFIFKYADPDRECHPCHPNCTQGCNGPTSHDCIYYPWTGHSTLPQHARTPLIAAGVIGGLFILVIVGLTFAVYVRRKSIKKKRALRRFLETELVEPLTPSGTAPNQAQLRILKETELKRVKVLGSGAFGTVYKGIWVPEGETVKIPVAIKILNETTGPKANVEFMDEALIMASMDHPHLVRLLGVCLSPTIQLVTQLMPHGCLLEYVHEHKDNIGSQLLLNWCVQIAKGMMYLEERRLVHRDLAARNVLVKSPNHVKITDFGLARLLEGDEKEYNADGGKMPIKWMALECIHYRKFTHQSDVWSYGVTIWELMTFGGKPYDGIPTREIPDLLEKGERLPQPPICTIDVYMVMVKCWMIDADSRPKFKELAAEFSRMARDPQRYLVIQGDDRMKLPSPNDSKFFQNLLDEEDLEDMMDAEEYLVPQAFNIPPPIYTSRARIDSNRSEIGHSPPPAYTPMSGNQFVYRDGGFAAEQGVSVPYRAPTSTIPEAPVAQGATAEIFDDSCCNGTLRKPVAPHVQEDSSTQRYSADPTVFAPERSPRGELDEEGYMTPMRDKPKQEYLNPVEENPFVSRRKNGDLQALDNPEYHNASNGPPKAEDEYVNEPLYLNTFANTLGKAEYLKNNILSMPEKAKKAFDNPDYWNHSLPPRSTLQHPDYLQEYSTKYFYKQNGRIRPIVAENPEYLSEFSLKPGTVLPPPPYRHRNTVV
Sequence of PTK2B (Q14289 whole entry): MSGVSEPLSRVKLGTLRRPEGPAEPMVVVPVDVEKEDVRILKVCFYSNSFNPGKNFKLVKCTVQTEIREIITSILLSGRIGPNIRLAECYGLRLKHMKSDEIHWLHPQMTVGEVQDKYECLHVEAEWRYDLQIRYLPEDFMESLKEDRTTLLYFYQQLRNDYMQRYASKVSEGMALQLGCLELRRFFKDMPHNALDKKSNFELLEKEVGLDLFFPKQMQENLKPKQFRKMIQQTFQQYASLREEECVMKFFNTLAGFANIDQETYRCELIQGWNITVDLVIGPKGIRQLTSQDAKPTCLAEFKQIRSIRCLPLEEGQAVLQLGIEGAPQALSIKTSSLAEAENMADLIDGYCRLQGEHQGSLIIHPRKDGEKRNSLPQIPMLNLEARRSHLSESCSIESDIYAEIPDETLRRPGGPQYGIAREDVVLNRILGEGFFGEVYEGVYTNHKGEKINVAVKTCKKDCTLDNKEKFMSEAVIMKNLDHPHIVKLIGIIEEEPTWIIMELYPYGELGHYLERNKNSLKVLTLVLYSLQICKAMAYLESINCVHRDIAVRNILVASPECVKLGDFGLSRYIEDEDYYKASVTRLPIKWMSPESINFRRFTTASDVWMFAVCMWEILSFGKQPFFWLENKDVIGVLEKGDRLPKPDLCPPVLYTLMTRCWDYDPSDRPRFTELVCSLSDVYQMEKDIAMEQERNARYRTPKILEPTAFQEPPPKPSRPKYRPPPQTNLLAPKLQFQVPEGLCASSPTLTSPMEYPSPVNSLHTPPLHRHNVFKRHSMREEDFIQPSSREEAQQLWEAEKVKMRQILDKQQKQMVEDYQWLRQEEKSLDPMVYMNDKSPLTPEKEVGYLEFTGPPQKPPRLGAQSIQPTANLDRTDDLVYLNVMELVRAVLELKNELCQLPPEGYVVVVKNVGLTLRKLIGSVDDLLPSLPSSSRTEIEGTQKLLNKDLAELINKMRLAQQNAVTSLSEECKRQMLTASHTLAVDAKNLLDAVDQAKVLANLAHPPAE
Sequence of MAPK1/ERK2 (P28482 whole entry): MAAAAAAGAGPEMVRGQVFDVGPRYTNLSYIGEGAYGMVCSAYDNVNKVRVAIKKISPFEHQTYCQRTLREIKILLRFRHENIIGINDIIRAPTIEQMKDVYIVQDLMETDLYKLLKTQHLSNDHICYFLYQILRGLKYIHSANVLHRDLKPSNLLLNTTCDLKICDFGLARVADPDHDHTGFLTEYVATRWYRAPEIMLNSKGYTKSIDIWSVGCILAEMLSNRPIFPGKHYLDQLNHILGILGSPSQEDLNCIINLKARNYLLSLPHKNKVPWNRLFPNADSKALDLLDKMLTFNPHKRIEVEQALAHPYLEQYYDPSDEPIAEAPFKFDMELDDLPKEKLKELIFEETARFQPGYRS
Sequence of NEK7 (Q8TDX7 whole entry): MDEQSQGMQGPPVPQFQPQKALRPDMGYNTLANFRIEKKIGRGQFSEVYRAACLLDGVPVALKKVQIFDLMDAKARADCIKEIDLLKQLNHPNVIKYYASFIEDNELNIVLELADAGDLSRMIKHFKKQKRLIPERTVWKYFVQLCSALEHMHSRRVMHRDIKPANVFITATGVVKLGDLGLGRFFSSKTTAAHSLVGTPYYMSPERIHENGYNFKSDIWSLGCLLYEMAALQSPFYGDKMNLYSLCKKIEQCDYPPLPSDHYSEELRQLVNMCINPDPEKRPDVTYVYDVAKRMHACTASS

For C=CC(=O)N1CCC[C@@H](n2nc(-c3ccc(Oc4ccccc4)cc3)c3c(N)ncnc32)C1 [Ibrutinib], the “1 µM GBD00276 (ibrutinib), % inhibition” value (SRMS) was 81.42%, the “1 µM GBD00276 (ibrutinib), % inhibition” value (ERBB4/HER4) was 98.2% and the “1 µM GBD00276 (ibrutinib), % inhibition” value (TESK2) was 8.621%. The “1 µM GBD00276 (ibrutinib), % inhibition” value (CSNK1AL/CK1A2) was 14.53%, the “1 µM GBD00276 (ibrutinib), % inhibition” value (GRK1) was 10.14% and the “1 µM GBD00276 (ibrutinib), % inhibition” value (MLK4) was 4.614%. For the same compound, the “1 µM GBD00276 (ibrutinib), % inhibition” value (FGFR1) was 21.97%, the “1 µM GBD00276 (ibrutinib), % inhibition” value (FER) was 6.712% and the “1 µM GBD00276 (ibrutinib), % inhibition” value (CSNK1E/CK1E) was 22.68%. The “1 µM GBD00276 (ibrutinib), % inhibition” value (MAPK1/ERK2) was -5.335%, the “1 µM GBD00276 (ibrutinib), % inhibition” value (ICK) was -2.761% and the “1 µM GBD00276 (ibrutinib), % inhibition” value (MARK4) was -1.923%. For the same compound, the “1 µM GBD00276 (ibrutinib), % inhibition” value (TSSK1) was 5.621%, the “1 µM GBD00276 (ibrutinib), % inhibition” value (MAP3K1) was -9.45% and the “1 µM GBD00276 (ibrutinib), % inhibition” value (EPHA3) was 12.32%. For the same compound, the “1 µM GBD00276 (ibrutinib), % inhibition” value (PNCK/CAMK1B) was -21.96%, the “1 µM GBD00276 (ibrutinib), % inhibition” value (SRPK3/MSSK1) was 1.885% and the “1 µM GBD00276 (ibrutinib), % inhibition” value (CDK2/A2) was -9.861%. The “1 µM GBD00276 (ibrutinib), % inhibition” value (DAPK2) was 19.22%, the “1 µM GBD00276 (ibrutinib), % inhibition” value (PRKD2) was -18.67% and the “1 µM GBD00276 (ibrutinib), % inhibition” value (PRKAA2/AMPK211) was 12.3%. For the same compound, the “1 µM GBD00276 (ibrutinib), % inhibition” value (FLT4) was 38.81%, the “1 µM GBD00276 (ibrutinib), % inhibition” value (MST1R/RON) was 1.112% and the “1 µM GBD00276 (ibrutinib), % inhibition” value (PLK2) was -1.576%. For the same compound, the “1 µM GBD00276 (ibrutinib), % inhibition” value (MAPK11/P38B) was -0.6084%, the “1 µM GBD00276 (ibrutinib), % inhibition” value (STK26/MST4) was -9.161% and the “1 µM GBD00276 (ibrutinib), % inhibition” value (BUB1) was 26.62%. The “1 µM GBD00276 (ibrutinib), % inhibition” value (CDK3/E1) was 0.5426%, the “1 µM GBD00276 (ibrutinib), % inhibition” value (ERBB2/HER2) was 98.1% and the “1 µM GBD00276 (ibrutinib), % inhibition” value (NEK7) was -0.8851%. For the same compound, the “1 µM GBD00276 (ibrutinib), % inhibition” value (MYO3A) was -10.26%, the “1 µM GBD00276 (ibrutinib), % inhibition” value (GSK3B) was 9.125% and the “1 µM GBD00276 (ibrutinib), % inhibition” value (DCLK1/DCAML1) was -29.46%. The “1 µM GBD00276 (ibrutinib), % inhibition” value (GAK) was -7.706%, the “1 µM GBD00276 (ibrutinib), % inhibition” value (PTK2B) was 21.97% and the “1 µM GBD00276 (ibrutinib), % inhibition” value (PAK3) was 14.04%. For the same compound, the “1 µM GBD00276 (ibrutinib), % inhibition” value (NUAK2) was 3.408% and the “1 µM GBD00276 (ibrutinib), % inhibition” value (PRKAA1/AMPK121) was 2.34%.
